Assay results published in PMC3016297 (Bioorganic & medicinal chemistry, 2010).
Like-named read-outs stand apart in the source and are kept apart here.

Assays:
[1] = tested on: mock-infected MT-4 cell; conditions: read-out: IC50, concentration that inhibits mock-infected MT-4 cell growth by 50%; mock-infected MT-4 cells; cited from earlier work
[2] = tested on: HIV-1IIIB; conditions: cited from earlier work; for EC50: HIV-1IIIB infected H9 lymphocytes
[3] = tested on: HIV-1NL4-3; assay: HIV-1NL4-3 inhibition assay in MT-4 lymphocytes; format: cell-based; conditions: HIV-1NL4-3 infected MT-4 cells; for fold more active than the corresponding compound not linked to AZT: 49 vs 63, 52 vs 64
[4] = tested on: mock-infected MT-4 cell; assay: Growth inhibition of mock-infected MT-4 cells; format: cell-based; conditions: Homo sapiens, MT4, read-out: IC50, concentration that inhibits mock-infected MT-4 cell growth by 50%

Structure (SMILES)	EC50 [2]	anti-HIV activity in words [3]	also measured
C=C(C)[C@@H]1CC[C@]2(C(=O)O)CC[C@]3(C)[C@H](CC[C@@H]4[C@@]5(C)CC[C@H](OC(=O)CC(C)(C)C(=O)O)C(C)(C)[C@@H]5CC[C@]43C)[C@@H]12 [Compound 2, 3-O-(3',3'-dimethylsuccinyl)betulinic acid]	< 0.35 nM		IC50 [1]: > 5000 nM
CC(C)[C@@H]1CC[C@]2(CO)CC[C@]3(C)[C@H](CC[C@@H]4[C@@]5(C)CC[C@H](OC(=O)CCCC(=O)O)C(C)(C)[C@@H]5CC[C@]43C)[C@@H]12 [Compound 4, 3-O-glutaryldihydrobetulin]	0.02 nM		
C=C(C)[C@@H]1CC[C@]2(COC(=O)CC(C)(C)CC(=O)O)CC[C@]3(C)[C@H](CC[C@@H]4[C@@]5(C)CC[C@H](OC(=O)CC(C)(C)CC(=O)O)C(C)(C)[C@@H]5CC[C@]43C)[C@@H]12 [Compound 5, 3,28-di-O-(3',3'-dimethylglutaryl)betulin]	0.66 nM		
C=C(C)[C@@H]1CC[C@]2(COC(=O)C(C)(C)CC(=O)O)CC[C@]3(C)[C@H](CC[C@@H]4[C@@]5(C)CC[C@H](OC(=O)CC(C)(C)C(=O)O)C(C)(C)[C@@H]5CC[C@]43C)[C@@H]12 [Compound 6, 3-O-(3',3'-dimethylsuccinyl)-28-O-(2",2"-dimethylsuccinyl)betulin]	0.87 nM		fold more potent against HIV replication than its isomer with a 3,3-dimethylsuccinyl side chain at C-28 ([2]; H9 lymphocytes assay): 230 fold
C=C(C)[C@@H]1CC[C@]2(COC(=O)CCC(=O)OC[C@H]3O[C@@H](n4cc(C)c(=O)[nH]c4=O)C[C@@H]3N=[N+]=[N-])CC[C@]3(C)[C@H](CC[C@@H]4[C@@]5(C)CC[C@H](OC(=O)CC(C)(C)C(=O)O)C(C)(C)[C@@H]5CC[C@]43C)[C@@H]12 [Compound 49, 3'-Azido-3'-deoxythymidine-5'-yl 3-O-(3',3'-dimethylsuccinyl)-lup-20(29)en-28-yl succinate]			fold more active than the corresponding compound not linked to AZT [3]: four
C=C(C)[C@@H]1CC[C@]2(COC(=O)CCCC(=O)OC[C@H]3O[C@@H](n4cc(C)c(=O)[nH]c4=O)C[C@@H]3N=[N+]=[N-])CC[C@]3(C)[C@H](CC[C@@H]4[C@@]5(C)CC[C@H](OC(=O)CC(C)(C)C(=O)O)C(C)(C)[C@@H]5CC[C@]43C)[C@@H]12 [Compound 52, 3'-Azido-3'-deoxythymidine-5'-yl 3-O-(3',3'-dimethylsuccinyl)-lup-20(29)en-28-yl glutarate]			fold more active than the corresponding compound not linked to AZT [3]: five
C=C(C)[C@@H]1CC[C@]2(COC(=O)CC(C)(C)CC(=O)OC[C@H]3O[C@@H](n4cc(C)c(=O)[nH]c4=O)C[C@@H]3N=[N+]=[N-])CC[C@]3(C)[C@H](CC[C@@H]4[C@@]5(C)CC[C@H](OC(=O)CC(C)(C)CC(=O)O)C(C)(C)[C@@H]5CC[C@]43C)[C@@H]12 [Compound 54, 3'-Azido-3'-deoxythymidine-5'-yl 3-O-(3',3'-dimethylglutaryl)-lup-20(29)en-28-yl 3,3-dimethylglutarate]		only moderate activity	
Cc1cn([C@H]2C[C@H](N=[N+]=[N-])C(COC(=O)CC(C)(C)CC(=O)OC[C@]34CC[C@@H](C(C)C)[C@@H]3[C@H]3CC[C@@H]5[C@@]6(C)CC[C@H](OC(=O)CCCC(=O)O)C(C)(C)[C@@H]6CC[C@@]5(C)[C@]3(C)CC4)O2)c(=O)[nH]c1=O (stereo partly drawn) [Compound 61, 3'-Azido-3'-deoxythymidine-5'-yl 3-O-glutaryl-lup-28-yl 3,3-dimethylglutarate]		the weakest compound	
Cc1cn([C@H]2C[C@H](N=[N+]=[N-])C(COC(=O)CC(C)(C)CC(=O)OC[C@]34CC[C@@H](C(C)C)[C@@H]3[C@H]3CC[C@@H]5[C@@]6(C)CC[C@H](OC(=O)CC(C)(C)CC(=O)O)C(C)(C)[C@@H]6CC[C@@]5(C)[C@]3(C)CC4)O2)c(=O)[nH]c1=O (stereo partly drawn) [Compound 62, 3'-Azido-3'-deoxythymidine-5'-yl 3-O-(3',3'-dimethylglutaryl)-lup-28-yl 3,3-dimethylglutarate]		only moderate activity	
C=C(C)[C@@H]1CC[C@]2(COC(=O)CCCC(=O)O)CC[C@]3(C)[C@H](CC[C@@H]4[C@@]5(C)CC[C@H](OC(=O)CC(C)(C)C(=O)O)C(C)(C)[C@@H]5CC[C@]43C)[C@@H]12 [Compound 64]			IC50 [4]: > 14600 nM
